# Reference: patent US20240009173A1, “Use of 5-HT3-Targeting Drugs for Treatment of Acute Kidney Injury” (priority 2020, published 2024)
# Read-outs that look alike come from different tables or passages of the source.
# How the values were obtained:
# all ICU patients = details: cited from earlier work
# ICU patients with AKI = details: cited from earlier work
# patients with AKI [1] = test system: patients with AKI; parameters: species or system human; details: in vivo
# patients with AKI [2] = details: human, in vivo
# patients with AKI [3] = details: human, in vivo; remark: listed apart in the source
# [4] = test system: patients without AKI on admission or prior to receiving drug; test: Anti-emetic usage and AKI risk in first ICU encounter: usage, max KDIGO category, binary logistic regression (Example 3); format: in vivo, human; details: for MAX KDIGO AKI Category 0 (%) / MAX KDIGO AKI Category 0, number of patients / MAX KDIGO AKI Category 1 (%) / MAX KDIGO AKI Category 1, number of patients / MAX KDIGO AKI Category 2 (%) / MAX KDIGO AKI Category 2, number of patients / MAX KDIGO AKI Category 3 (%) / MAX KDIGO AKI Category 3, number of patients: drug users, use before discharge/death or before AKI
# Excerpt: Study Population: The study population excludes patients with end-stage kidney disease and excludes patients with Acute Kidney Injury on admission or prior to receiving drug. […] Metoclopramide is primarily a dopamine D2 receptor antagonist anti-emetic. […] Prochlorperazine is primarily a dopamine receptor antagonist anti-emetic. […] This was a binary logistic regression with an outcome of experiencing any AKI within a first ICU encounter. The independent variable was use of anti-emetic prior to AKI (or before discharge if no AKI). […] The independent variable was use of anti-emetic prior to AKI (or before discharge if no AKI). […] The outcome was experiencing any AKI. The […] was the use of medication within the average time prior to AKI.
# ICU patients = test: Anti-emetic use and in-ICU death, logistic regression (Example 3); format: in vivo, human; details: outcome in-ICU death
# [5] = literature and/or clinical trials
# [6] = outcome AKI Category 2 or 3 vs Category 0 or 1, use of anti-emetic prior to AKI (or before discharge)
# [7] = outcome any AKI within first ICU encounter, use of anti-emetic prior to AKI (or before discharge if no AKI)
# [8] = outcome any AKI, use of medication within the average time prior to AKI
# [9] = use of medication within average time prior to AKI
# [10] = use within average time prior to AKI and Apache Score on ICU admission
Molecule,Reported for protecting effect in all ICU patients (all ICU patients; [5]),Reported for protecting effect in ICU patients with AKI (ICU patients with AKI; [5]),Coefficient (patients with AKI [1]),Death rate in eICU database (patients with AKI [2]),Death rate in MIMIC III database (patients with AKI [3]),further results
CCCCC(CC)COC(=O)CC(C(=O)OCC(CC)CCCC)S(=O)(=O)O (stereo not drawn) [Docusate],N,N,−0.028,"136.48 per 1,000 patients","178.57 per 1,000 patients",–
CCN(CC)CCNC(=O)c1cc(Cl)c(N)cc1OC [Metoclopramide],N,N,–,"158.32 per 1,000 patients","248.67 per 1,000 patients","MAX KDIGO AKI Category 0 (%) [4]: (72.54) %; MAX KDIGO AKI Category 0, number of patients [4]: 3,830; MAX KDIGO AKI Category 1 (%) [4]: (14.05) %; MAX KDIGO AKI Category 1, number of patients [4]: 742; MAX KDIGO AKI Category 2 (%) [4]: (6.91) %; MAX KDIGO AKI Category 2, number of patients [4]: 365; MAX KDIGO AKI Category 3 (%) [4]: (6.50) %; MAX KDIGO AKI Category 3, number of patients [4]: 343; Odds Ratio [4, 6]: 1.033; Odds Ratio [4, 7]: 0.408; Odds Ratio [4, 8]: 1.249; Odds Ratio (ICU patients; [9]): 1.270; Odds Ratio (ICU patients; [10]): 1.08"
COCCc1ccc(OCC(O)CNC(C)C)cc1 (stereo not drawn) [Metoprolol],Y^11,N,−0.051,"107.87 per 1,000 patients","169.99 per 1,000 patients",–
CC(=O)CC(c1ccccc1)c1c(O)c2ccccc2oc1=O (stereo not drawn) [Warfarin],Y^1,N,−0.115,"35.34 per 1,000 patients","67.31 per 1,000 patients",–
O=C1Nc2ccc(Cl)cc2C(c2ccccc2Cl)=NC1O (stereo not drawn) [Lorazepam],–,–,0.031,"228.92 per 1,000 patients","285.59 per 1,000 patients",Reported for protecting effect in all ICU patients (all ICU patients): N; Reported for protecting effect in ICU patients with AKI (ICU patients with AKI): N
NS(=O)(=O)c1cc(C(=O)O)c(NCc2ccco2)cc1Cl [Furosemide],Y^7,Y^8,−0.036,"120.87 per 1,000 patients","214.64 per 1,000 patients",–
NCCCC[C@H](N[C@@H](CCc1ccccc1)C(=O)O)C(=O)N1CCC[C@H]1C(=O)O [Lisinopril],Y^14,Y^15,−0.049,"21.71 per 1,000 patients","53.11 per 1,000 patients",–
CN1CC[C@]23c4c5ccc(O)c4O[C@H]2[C@@H](O)C=C[C@H]3[C@H]1C5 [Morphine],–,–,0.198,"234.81 per 1,000 patients","376.48 per 1,000 patients",Reported for protecting effect in all ICU patients (all ICU patients): Y^1; Reported for protecting effect in ICU patients with AKI (ICU patients with AKI): N
O=C(CCCN1CCC(O)(c2ccc(Cl)cc2)CC1)c1ccc(F)cc1 [Haloperidol],N,N,−0.063,"201.23 per 1,000 patients","194.85 per 1,000 patients",–
NC[C@H](O)c1ccc(O)c(O)c1 [Norepinephrine],Y^2,N,0.167,"336.62 per 1,000 patients","497.51 per 1,000 patients",–
CN1CCN(CCCN2c3ccccc3Sc3ccc(Cl)cc32)CC1 [Prochlorperazine],–,–,–,–,–,"MAX KDIGO AKI Category 0 (%) [4]: (73.48) %; MAX KDIGO AKI Category 0, number of patients [4]: 2,488; MAX KDIGO AKI Category 1 (%) [4]: (14.77) %; MAX KDIGO AKI Category 1, number of patients [4]: 500; MAX KDIGO AKI Category 2 (%) [4]: (5.88) %; MAX KDIGO AKI Category 2, number of patients [4]: 199; MAX KDIGO AKI Category 3 (%) [4]: (5.88) %; MAX KDIGO AKI Category 3, number of patients [4]: 199; Odds Ratio [4, 6]: 0.90; Odds Ratio [4, 7]: 0.457; Odds Ratio [4, 8]: 0.988; Odds Ratio (ICU patients; [9]): 0.736; Odds Ratio (ICU patients; [10]): 0.879"
Heparin,Y^10,N,−0.053,"143.03 per 1,000 patients","210.41 per 1,000 patients",–
CC(=O)Nc1ccc(O)cc1 [Acetaminophen],N,N,−0.040,"123.47 per 1,000 patients","181.26 per 1,000 patients",–
C[C@@H](O)[C@H]1C(=O)N2C(C(=O)O)=C(S[C@@H]3CN[C@H](C(=O)N(C)C)C3)[C@H](C)[C@H]12 [Meropenem],Y^12,Y^13,0.076,"269.96 per 1,000 patients","460.50 per 1,000 patients",–
O=S(=O)([O-])[O-].[Mg+2] [Magnesium Sulfate],–,–,−0.054,"172.14 per 1,000 patients","203.36 per 1,000 patients",Reported for protecting effect in all ICU patients (all ICU patients): Y^3; Reported for protecting effect in ICU patients with AKI (ICU patients with AKI): Y^4
Cc1ncc2n1-c1ccc(Cl)cc1C(c1ccccc1F)=NC2 [Midazolam],–,–,0.027,"273.07 per 1,000 patients","899.95 per 1,000 patients",Reported for protecting effect in all ICU patients (all ICU patients): Y^20; Reported for protecting effect in ICU patients with AKI (ICU patients with AKI): N
CCCCc1oc2ccccc2c1C(=O)c1cc(I)c(OCCN(CC)CC)c(I)c1 [Amiodarone],N,N,0.090,"269.89 per 1,000 patients","338.95 per 1,000 patients",–
COc1ccc2c3c1O[C@H]1C(=O)CC[C@@]4(O)[C@@H](C2)N(C)CC[C@]314 [Oxycodone],–,–,−0.089,"55.56 per 1,000 patients","94.98 per 1,000 patients",Reported for protecting effect in all ICU patients (all ICU patients): Y^9; Reported for protecting effect in ICU patients with AKI (ICU patients with AKI): N
C[C@H](CS)C(=O)N1CCC[C@H]1C(=O)O [Captopril],Y^18,Y^19,−0.044,–,"133.04 per 1,000 patients",–
